Experimental findings from patent publication US9133496B2, “Material for screening for compound acting on ion channel and use thereof” (priority 2010, dated 2015) are described below.

Molecules are shown by their SMILES.

In test [1] the test system is HEK-Kir-mutated Nav cells. Briefly: DiBAC4(3) membrane potential fluorescence under high K+ stimulation in HEK-Kir-mutated Nav cells. Type of test: cell-based, human. The conditions noted are these: 1 mM lidocaine, extracellular K ion 5.9 mM to 15.3 mM, FIG. 17. How it is done:
In the present example, a study was conducted on measurement of membrane potential using a membrane potential-sensitive dye in the form of DiBAC4(3), and using an extracellular solution containing K ions at a high concentration for depolarizing stimulation.
After loading two types of cells (HEK and HEK-Kir-mutated Nav cells) with 100 nM DiBAC4(3) (bis(1,3-dibutylbarbituric acid)trimethine oxanol) in normal HEPES buffer containing the dye for 30 minutes at room temperature, and fluorescence was measured at 520 nm or higher by exciting at 488 nm and reflecting with a dichroic mirror at 505 nm. In addition, high K^+ extracellular fluid having an increased K ion concentration was used as a stimulus to depolarize the cell membrane. This is because K ions are primarily involved in formation of resting membrane potential. […] In the present example, changes in fluorescence intensity of two types of cells were measured using this depolarizing stimulus. Furthermore, measurements were carried out based on a value of 1 for fluorescence intensity in the case of making the extracellular K ion concentration to be 140 mM K^+. The Argus/HiSCA high-speed, cooled CCD camera fluorescent imaging system (Hamamatsu Photonics K.K.) was used to measure fluorescence.

For test [2], the system named is HEK-Kir-mutated Nav cells. Put plainly: Cell death by electrical stimulation, MTT method, HEK-Kir-mutated Nav cells. The class given is cell-based, human. The conditions noted are these: square wave 80 mA, 200 ms, three times at 3 min intervals, FIG. 6. How it is done: Human-derived embryonic kidney cells (HEK293 cells) were purchased from the Health Sciences Research Resource Bank (HSRRB). 10% FBS (Gibco Corp.) was added thereto followed by culturing at 37° C. in 5% CO2 in D-MEM medium (Wako Pure Chemical Industries, Ltd.) containing 100 U/ml penicillin (Wako Pure Chemical Industries, Ltd.) and 100 μg/ml streptomycin (Meiji Seika Kaisha, Ltd.). pcDNA/Kir 2.1, obtained by subcloning human-derived Kir 2.1 (NM_00891.2) in pcDNA3.1(+) (Invitrogen Corp.), was inserted using Lipofectamine 2000 reagent (Invitrogen Corp.) followed by culturing in medium obtained by adding 0.2 mg/ml Zeocin (Invitrogen Corp.) to the above-mentioned D-MEM medium and then cloning Zeocin resistant cells to produce Kir 2.1 constantly expressing cells (HEK-Kir). […]
It was clearly determined from the results described in section 2 above that an extremely long action potential is generated in the mutant type Nav 1.5 channel. Since there is thought to be the possibility of cell death occurring when the action potential is generated by electrical stimulation, cell death attributable to electrical stimulation was measured. […] On the basis thereof, cell death was determined to occur in HEK-Kir-mutated Nav cells as a result of generating an extremely long action potential, while inhibition of Na ion channels blocked cell death.

Another test concerns HEK-Kir cells. Briefly: Membrane potential of HEK-Kir cells, current clamp method. Type of test: cell-based, human. To be noted: 100 μM Ba ions, resting potential about −70 mV before, FIG. 2B.
Another test deals with T1, Kir 2.1 channel (Homo sapiens, UniProt P63252).
T1 construct: expressed in transfected cells
T1 sequence (P63252 1-427): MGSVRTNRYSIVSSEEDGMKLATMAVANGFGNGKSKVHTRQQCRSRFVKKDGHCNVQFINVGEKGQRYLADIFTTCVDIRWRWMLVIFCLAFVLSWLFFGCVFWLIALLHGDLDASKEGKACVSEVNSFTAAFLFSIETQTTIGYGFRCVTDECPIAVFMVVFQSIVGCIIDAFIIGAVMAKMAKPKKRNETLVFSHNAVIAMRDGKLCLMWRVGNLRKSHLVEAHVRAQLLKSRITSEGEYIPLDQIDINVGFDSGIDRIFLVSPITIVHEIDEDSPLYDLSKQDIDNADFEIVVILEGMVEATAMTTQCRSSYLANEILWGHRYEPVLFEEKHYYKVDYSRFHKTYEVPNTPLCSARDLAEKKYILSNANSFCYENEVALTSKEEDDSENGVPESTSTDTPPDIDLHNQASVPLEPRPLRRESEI
Briefly: Kir channel current in HEK-Kir cells, voltage clamp method. The class given is cell-based. The conditions noted are these: 100 μM Ba ions, FIG. 2A. The protocol: Human-derived embryonic kidney cells (HEK293 cells) were purchased from the Health Sciences Research Resource Bank (HSRRB). 10% FBS (Gibco Corp.) was added thereto followed by culturing at 37° C. in 5% CO2 in D-MEM medium (Wako Pure Chemical Industries, Ltd.) containing 100 U/ml penicillin (Wako Pure Chemical Industries, Ltd.) and 100 μg/ml streptomycin (Meiji Seika Kaisha, Ltd.). pcDNA/Kir 2.1, obtained by subcloning human-derived Kir 2.1 (NM_00891.2) in pcDNA3.1(+) (Invitrogen Corp.), was inserted using Lipofectamine 2000 reagent (Invitrogen Corp.) followed by culturing in medium obtained by adding 0.2 mg/ml Zeocin (Invitrogen Corp.) to the above-mentioned D-MEM medium and then cloning Zeocin resistant cells to produce Kir 2.1 constantly expressing cells (HEK-Kir). In addition, the inactivated mutant Nav-QQQ (HEK-Kir-mutated Nay) was inserted into the Kir 2.1 constantly expressing cells using the same method followed by conducting experiments 24 to 72 hours later.
Kir channel current was measured by applying the voltage clamp method to HEK-Kir cells.

On to `CCN(CC)CC(=O)Nc1c(C)cccc1C` [lidocaine], for which the “changes in fluorescence caused by high K+ stimulation” value in test [1] is reported as “inhibited”. Further, in test [2], the “occurrence of cell death attributable to electrical stimulation” value is listed as “inhibited”.

Take `[Ba+2]` [Ba ions]: the resting membrane potential entry in the test with HEK-Kir cells is listed as “became shallow”. In addition, the “inward Kir channel current” value on Kir 2.1 channel is listed as “inhibited”.
